One assay deals with DHX9. In words: qPCR (SYBR Green) of circular and linear RNAs in HCT116 cells after DHX9 inhibition. As to conditions: 72 hours, FIG. 1. Type of assay: cell-based. The protocol:
This experiment was conducted to evaluate circular and linear formats of different mRNA in HCT116 cells after treatment with DHX9 inhibitors by Quantitative Polymerase Chain Reaction (qPCR).
HCT116 cells were obtained from ATCC (CCL-247) and were grown and assayed in McCoy's 5a growth media supplemented with 10% FBS.
The cells were plated at pre-determined cell densities in 384-well cell culture plates and incubated overnight in 37° C. at 5% CO2. In a separate plate, reference and test compounds were prepared in DMSO stock solution and serially diluted 3-fold for 10 points. Compound 7 (0.1% final DMSO concentration) was transferred to the cell plate in designated wells, and incubated 37° C. at 5% CO2 for 72 hours.
RNA was extracted from the cells using the SYBR Green Fast Advanced Cell-to-CT kit according to manufacturer's (Invitrogen) protocol, and cDNA was reverse transcribed using the High Capacity RNA-to-cDNA Kit according to the manufacturer's (Invitrogen) protocol. Using RT^2 SYBR Green ROX qPCR Mastermix (Invitrogen) and thermal cycler conditions for the QuantStudio Thermocycler, qPCR was carried out using the below custom primer sequences obtained at Integrated DNA Technologies (IDT):
Data analysis was performed by using the QuantStudio Thermocycler software to determine threshold Ct values. ΔCt for circRNA or linRNA is calculated by normalizing the target gene Ct to the GAPDH housekeeping gene Ct for each sample. The inhibition activity is calculated by the following formula, whereas: […]
ΔCts: Mean of Ct(target gene)−Mean of Ct(GAPDH) for each sample
ΔCtc: Mean of Ct(target gene)−Mean of Ct(GAPDH) for DMSO control.
On the technique in general: Quantitative PCR measures a nucleic acid by following its amplification.

A further assay has as its system human PBMCs. In words: proliferation of human PBMCs (Cell-Titer Glo 2.0). It is filed as cell-based. As to conditions: Compound 1 0.01 μM to 10 μM, 10 days; FIG. 8B. The protocol:
Next, the proliferation of PMBCs was examined following treatment with DHX9 inhibitor using the following assay.
Human PBMCs were thawed from a frozen cryotube in a 37° C. water bath and transferred to a flask with medium X-Vivo 15 supplemented with 5% Fetal Bovine Serum (FBS), 1% PenStrep, and 1% Glutamax. Flasks were incubated at 37 C for 30 minutes. PBMCs were harvested from flask and counted. PBMCs were diluted in medium and added to 96 well plates at 100,000 PBMCs per well. A stimulus mixture containing IL-15 at 1 ng/well, IL-21 at 5 ng/well, and CD40L at 5 ng/well was added to each well. Test compounds were prepared in DMSO stock solution and serially diluted. Compound (0.1% final DMSO concentration) was added to each well. DMSO was used as a negative control (high control, HC) and staurosporine was used a positive control (low control, LC). Plates were incubated at 37 C for 0, 2, 4, 6, 8, 10 days. Every other day, medium was replenished with stimulus and diluted compounds.
At each CTG time point, plate was removed from incubator and Cell-Titer Glo 2.0 reagent was added to each well according to manufacturer's (Promega) protocol and detected on an Envision. The inhibition activity was calculated following the formula below:
% Inhibition=100×(ReadoutHC−ReadoutSample)/(ReadoutHC−ReadoutLC)
PBMCs were exposed to Compound 1 at concentrations ranging from 0.01 μM to 10 μM for 10 days. […]

For the molecule `CS(=O)(=O)Nc1cccc(NC(=O)c2cc(Br)cs2)c1` [Compound 7, 4-bromo-N-(3-methanesulfonamidophenyl)thiophene-2-carboxamide], in the assay on DHX9, the “induction of AKR1A1 circRNA (Alu-mediated)” value is recorded as “induced”, the “induction of BRIP1 circRNA (Alu-mediated)” value is “induced”, the “induction of DKC1 circRNA (Alu-mediated)” value is “induced” and the “induction of SETD3 circRNA (non-Alu-mediated)” value was “no induction of SETD3 cirRNA was observed”.

As for `CN[C@@H]1C[C@H]2O[C@@](C)([C@@H]1OC)n1c3ccccc3c3c4c(c5c6ccccc6n2c5c31)C(=O)NC4` [staustoporine, staurosporine, reference compound], the “proliferation of PBMCs” value with human PBMCs is “inhibited proliferation of PBMCs”.
